Source: PubChem BioAssay AID200 (DTP/NCI, 2004)
Where “and” joins values, the source holds several entries; their conditions need not be identical. Identical values can stand only once. Toxic doses and inconclusive results are not listed. *1 amine or outer side, *2 acyl side, *3 side chain or, on linkers, in order; H or OH if unused. Where a SMILES comes first, the peptide text is derived from it. Bridges are numbered along the chain shown (N, C = ends). Roman numbers before positions name the chains, in order. [ ]: non-standard residue; d: D form. Actinocin(9to1) = Cc1c2oc3c(C)ccc(C(=O)[*:1])c3nc-2c(C(=O)[*:2])c(N)c1=O; aThr = C[C@H](O)[C@H](N)C(=O)O; NMeV = CN[C@H](C(=O)O)C(C)C; Sar = CNCC(=O)O

Test system: B6C3F1 mice, B16 melanoma ip, median survival T/C
Assay: NCI In Vivo Anticancer Drug Screen. Data for tumor model B16 Melanoma (intraperitoneal) in B6C3F1 mice
Settings: endpoint: median survival time, higher = longer survival
Method in brief: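 Values are T/C ratios: the measurement in treated animals divided by that in vehicle-treated controls, using survival or tumor size in mice carrying transplantable tumors.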

[1] = dose: 100.0 mg/kg/injection, schedule: Q01DX009 (ip), vehicle: saline with Tween-80
[2] = dose: 200.0 mg/kg/injection, schedule: Q01DX009 (ip), vehicle: saline with Tween-80
[3] = dose: 25.0 mg/kg/injection, schedule: Q01DX009 (ip), vehicle: saline with Tween-80
[4] = dose: 50.0 mg/kg/injection, schedule: Q01DX009 (ip), vehicle: saline with Tween-80
[5] = dose: 100.0 mg/kg/injection, schedule: Q01DX009 (ip), vehicle: Klucel (hydroxypropylcellulose) (HPC)
[6] = dose: 200.0 mg/kg/injection, schedule: Q01DX009 (ip), vehicle: Klucel (hydroxypropylcellulose) (HPC)
[7] = dose: 400.0 mg/kg/injection, schedule: Q01DX009 (ip), vehicle: Klucel (hydroxypropylcellulose) (HPC)
[8] = dose: 25.0 mg/kg/injection, schedule: Q01DX009 (ip), vehicle: saline

What does the source list for `NC(CSSCC(N)C(=O)O)C(=O)O` (configuration not stated)?
T/C [1]: 101 % of control; T/C [2]: 103 % of control; T/C (dose: 400.0 mg/kg/injection, schedule: Q01DX009 (ip), vehicle: saline with Tween-80): 117 % of control; T/C (dose: 800.0 mg/kg/injection, schedule: Q01DX009 (ip), vehicle: saline with Tween-80): 102 % of control

What does the source list for `O=C(CCCCCCC(=O)ON1C(=O)CCC1=O)ON1C(=O)CCC1=O`?
T/C [3]: 99 % of control; T/C [4]: 96 % of control; T/C [1]: 103 % of control

With `CCCCCCCCCCCCO[P+](=O)OCCCCCCCCCCCC` as the compound, how does the T/C [4] read?
Its T/C is 94 % of control.

What about the T/C [1] of the same compound?
The T/C was 96 % of control.

Which results are given for `COc1cccc2c1C(=O)c1c(O)c3c(c(O)c1C2=O)C[C@@](O)(C(C)=O)C[C@@H]3OC1CC(N(C)Cc2ccccc2)C(O)C(C)O1` (some centres not stated)?
T/C (dose: 3.13 mg/kg/injection, schedule: Q01DX001 (ip), vehicle: distilled water + Tween-80): 114 % of control; T/C (dose: 12.5 mg/kg/injection, schedule: Q01DX001 (ip), vehicle: distilled water + Tween-80): 122 % of control

For `N#CCc1c[nH]c2ccc([N+](=O)[O-])cc12`, which T/C [4] is on record?
The T/C was 102 % of control.

And the T/C [1]?
Its T/C is 100 % of control.

What about the T/C [2] of the same compound?
Its T/C is 108 % of control.

`CC(C)CC(NC(=O)CF)C(=O)O` (configuration not stated) was tested. Which T/C (dose: 0.31 mg/kg/injection, schedule: Q01DX009 (ip), vehicle: saline) did it give?
Its T/C is 95 % of control.

And the T/C (dose: 0.63 mg/kg/injection, schedule: Q01DX009 (ip), vehicle: saline)?
Its T/C is 93 % of control.

What about the T/C (dose: 1.25 mg/kg/injection, schedule: Q01DX009 (ip), vehicle: saline) of the same compound?
The T/C was 90 % of control.

And the T/C (dose: 2.5 mg/kg/injection, schedule: Q01DX009 (ip), vehicle: saline)?
Its T/C is 89 % of control.

What about the T/C (dose: 5.0 mg/kg/injection, schedule: Q01DX009 (ip), vehicle: saline) of the same compound?
Its T/C is 96 % of control.

What about the T/C (dose: 10.0 mg/kg/injection, schedule: Q01DX009 (ip), vehicle: saline) of the same compound?
The T/C was 100 % of control.

With `CCN(CC)Cc1cc2[nH]c3c4ccc(Cl)cc4ncc3c2cc1OC` as the compound, how does the T/C (dose: 12.5 mg/kg/injection, schedule: Q01DX009 (ip), vehicle: saline with Tween-80) read?
The T/C was 91 % of control and 102 % of control.

And the T/C [3]?
Its T/C is 112 % of control and 102 % of control.

What about the T/C [4] of the same compound?
The T/C was 98 % of control and 107 % of control.

`O=C1CN(CO)C(=O)N1CO` was tested. Which T/C (dose: 25.0 mg/kg/injection, schedule: Q01DX009 (ip), vehicle: Klucel (hydroxypropylcellulose) (HPC)) did it give?
Its T/C is 93 % of control.

And the T/C (dose: 50.0 mg/kg/injection, schedule: Q01DX009 (ip), vehicle: Klucel (hydroxypropylcellulose) (HPC))?
Its T/C is 97 % of control.

And the T/C [5]?
The T/C was 110 % of control.

What about the T/C [6] of the same compound?
Its T/C is 103 % of control.

Which T/C (dose: 1.56 mg/kg/injection, schedule: Q01DX009 (ip), vehicle: Klucel (hydroxypropylcellulose) (HPC)) does the source give for `CCCCCC[Se][Se]CCCCCC` here?
Its T/C is 97 % of control.

And the T/C (dose: 3.12 mg/kg/injection, schedule: Q01DX009 (ip), vehicle: Klucel (hydroxypropylcellulose) (HPC))?
Its T/C is 106 % of control.

And the T/C (dose: 6.25 mg/kg/injection, schedule: Q01DX009 (ip), vehicle: Klucel (hydroxypropylcellulose) (HPC))?
The T/C was 95 % of control.

Which results are given for `Oc1cc(O)cc(/C=C/c2ccc(O)c(O)c2)c1`?
T/C (dose: 6.25 mg/kg/injection, schedule: Q01DX009 (ip), vehicle: DMSO): 118 % of control; T/C (dose: 12.5 mg/kg/injection, schedule: Q01DX009 (ip), vehicle: DMSO): 111 % of control; T/C (dose: 50.0 mg/kg/injection, schedule: Q01DX009 (ip), vehicle: DMSO): 117 % of control; T/C (dose: 100.0 mg/kg/injection, schedule: Q01DX009 (ip), vehicle: DMSO): 113 % of control and 96 % of control

With `CCCCOc1ccc(C(=O)SCCCN=C(N)N)cc1` as the compound, how does the T/C (dose: 3.12 mg/kg/injection, schedule: Q01DX009 (ip), vehicle: suspension in saline) read?
Its T/C is 92 % of control.

What about the T/C (dose: 6.25 mg/kg/injection, schedule: Q01DX009 (ip), vehicle: suspension in saline) of the same compound?
The T/C was 97 % of control.

And the T/C (dose: 25.0 mg/kg/injection, schedule: Q01DX009 (ip), vehicle: suspension in saline)?
Its T/C is 87 % of control.

What does the source list for `CN(C)N=Nc1ccnc2ccc(I)cc12`?
T/C (dose: 3.13 mg/kg/injection, schedule: Q01DX009 (ip), vehicle: other): 111 % of control; T/C (dose: 6.25 mg/kg/injection, schedule: Q01DX009 (ip), vehicle: other): 115 % of control; T/C (dose: 12.5 mg/kg/injection, schedule: Q01DX009 (ip), vehicle: other): 109 % of control; T/C (dose: 25.0 mg/kg/injection, schedule: Q01DX009 (ip), vehicle: other): 110 % of control; T/C (dose: 50.0 mg/kg/injection, schedule: Q01DX009 (ip), vehicle: other): 114 % of control

What does the source list for `CCc1nc(N)nc(N)c1-c1ccc(Cl)c([N+](=O)[O-])c1`?
T/C (dose: 1.56 mg/kg/injection, schedule: Q01DX009 (ip), vehicle: saline with Tween-80): 106 % of control; T/C (dose: 3.12 mg/kg/injection, schedule: Q01DX009 (ip), vehicle: saline with Tween-80): 105 % of control; T/C (dose: 3.25 mg/kg/injection, schedule: Q01DX009 (ip), vehicle: saline with Tween-80): 100 % of control; T/C (dose: 6.25 mg/kg/injection, schedule: Q01DX009 (ip), vehicle: saline with Tween-80): 111 % of control; T/C (dose: 7.5 mg/kg/injection, schedule: Q01DX009 (ip), vehicle: saline with Tween-80): 101 % of control; T/C (dose: 15.0 mg/kg/injection, schedule: Q01DX009 (ip), vehicle: saline with Tween-80): 103 % of control; T/C (dose: 30.0 mg/kg/injection, schedule: Q01DX009 (ip), vehicle: saline with Tween-80): 104 % of control; T/C (dose: 60.0 mg/kg/injection, schedule: Q01DX009 (ip), vehicle: saline with Tween-80): 114 % of control

Which results are given for `COC1=C2C[C@@H](C)C[C@@H](OC)[C@@H](O)[C@H](C)/C=C(\C)[C@@H](OC(N)=O)[C@H](OC)/C=C\C=C(/C)C(=O)NC(=CC1=O)C2=O`?
T/C (dose: 0.12 mg/kg/injection, schedule: Q01DX009 (ip), vehicle: saline with Tween-80): 103 % of control and 106 % of control; T/C (dose: 0.13 mg/kg/injection, schedule: Q01DX009 (ip), vehicle: saline with Tween-80): 105 % of control; T/C (dose: 0.25 mg/kg/injection, schedule: Q01DX009 (ip), vehicle: saline with Tween-80): 108 % of control and 118 % of control; T/C (dose: 0.5 mg/kg/injection, schedule: Q01DX009 (ip), vehicle: saline with Tween-80): 122 % of control and 102 % of control and 105 % of control; T/C (dose: 1.0 mg/kg/injection, schedule: Q01DX009 (ip), vehicle: saline with Tween-80): 109 % of control and 102 % of control; T/C (dose: 2.0 mg/kg/injection, schedule: Q01DX009 (ip), vehicle: saline with Tween-80): 123 % of control and 106 % of control

What does the source list for `CC(C)C(NC(=O)CCNC(=O)OCc1ccccc1)C(=O)O` (configuration not stated)?
T/C [5]: 100 % of control; T/C [6]: 116 % of control; T/C [7]: 87 % of control

`Nc1ccc(Cl)c2ccccc12` was tested. Which T/C [3] did it give?
Its T/C is 99 % of control.

And the T/C [4]?
The T/C was 103 % of control.

What about the T/C [1] of the same compound?
Its T/C is 109 % of control.

What does the source list for `OCC[N+]12CN3CN(CN(C3)C1)C2`?
T/C [8]: 101 % of control; T/C (dose: 50.0 mg/kg/injection, schedule: Q01DX009 (ip), vehicle: saline): 109 % of control; T/C (dose: 100.0 mg/kg/injection, schedule: Q01DX009 (ip), vehicle: saline): 103 % of control; T/C (dose: 200.0 mg/kg/injection, schedule: Q01DX009 (ip), vehicle: saline): 108 % of control; T/C (dose: 400.0 mg/kg/injection, schedule: Q01DX009 (ip), vehicle: saline): 108 % of control

Which T/C (dose: 12.5 mg/kg/injection, schedule: Q01DX009 (ip), vehicle: saline) does the source give for `CN(Cc1cnc2nc(N)nc(N)c2n1)c1c(Cl)cc(C(=O)NC(CCC(=O)O)C(=O)O)cc1Cl` (configuration not stated) here?
The T/C was 96 % of control.

What about the T/C [8] of the same compound?
Its T/C is 91 % of control.

Which results are given for `Cc1c2oc3c(C)ccc(C(=O)N[C@@H]4C(=O)N[C@H](C(C)C)C(=O)N5CCC[C@H]5C(=O)N(C)CC(=O)N(C)[C@@H](C(C)C)C(=O)O[C@H]4C)c3nc-2c(C(=O)N[C@@H]2C(=O)N[C@H](C(C)C)C(=O)N3CCC[C@H]3C(=O)N(C)CC(=O)N(C)[C@@H](C(C)C)C(=O)O[C@H]2C)c(N)c1=O` (I: [aThr][dV]P[Sar][NMeV] / II: [aThr][dV]P[Sar][NMeV]; ester I:1-I:C, II:1-II:C; linker I:N-II:N via Actinocin(9to1))?
T/C (dose: 6.25 micrograms/kg/injection, schedule: Q01DX009 (ip), vehicle: saline + alcohol): 118 % of control; T/C (dose: 6.25 micrograms/kg/injection, schedule: Q01DX009 (ip), vehicle: water): 117 % of control; T/C (dose: 6.3 micrograms/kg/injection, schedule: Q01DX009 (ip), vehicle: saline + alcohol): 108 % of control and 110 % of control; T/C (dose: 12.5 micrograms/kg/injection, schedule: Q01DX009 (ip), vehicle: saline + alcohol): 115 % of control; T/C (dose: 25.0 micrograms/kg/injection, schedule: Q01DX009 (ip), vehicle: water): 151 % of control; T/C (dose: 50.0 micrograms/kg/injection, schedule: Q01DX009 (ip), vehicle: saline + alcohol): 172 % of control; T/C (dose: 50.0 micrograms/kg/injection, schedule: Q01DX009 (ip), vehicle: water): 171 % of control; T/C (dose: 100.0 micrograms/kg/injection, schedule: Q01DX009 (ip), vehicle: saline + alcohol): 160 % of control and 166 % of control; T/C (dose: 100.0 micrograms/kg/injection, schedule: Q01DX009 (ip), vehicle: water): 181 % of control; T/C (dose: 200.0 micrograms/kg/injection, schedule: Q01DX009 (ip), vehicle: saline + alcohol): 159 % of control and 174 % of control

What does the source list for `NC(=O)CCC(NC(=O)OCC1c2ccccc2-c2ccccc21)C(=O)O` (configuration not stated)?
T/C [5]: 98 % of control; T/C [6]: 93 % of control; T/C [7]: 94 % of control
